Counter-ions that a name gives are not always drawn.
Target: T1, Human Polθ polymerase domain (aa1820-2590) (Homo sapiens, UniProt O75417)
T1 construct: Human Polθ polymerase domain (aa1820-2590) was expressed in E. Coli; made in house; host or cells: E. coli
T1 sequence (O75417 1820-2590): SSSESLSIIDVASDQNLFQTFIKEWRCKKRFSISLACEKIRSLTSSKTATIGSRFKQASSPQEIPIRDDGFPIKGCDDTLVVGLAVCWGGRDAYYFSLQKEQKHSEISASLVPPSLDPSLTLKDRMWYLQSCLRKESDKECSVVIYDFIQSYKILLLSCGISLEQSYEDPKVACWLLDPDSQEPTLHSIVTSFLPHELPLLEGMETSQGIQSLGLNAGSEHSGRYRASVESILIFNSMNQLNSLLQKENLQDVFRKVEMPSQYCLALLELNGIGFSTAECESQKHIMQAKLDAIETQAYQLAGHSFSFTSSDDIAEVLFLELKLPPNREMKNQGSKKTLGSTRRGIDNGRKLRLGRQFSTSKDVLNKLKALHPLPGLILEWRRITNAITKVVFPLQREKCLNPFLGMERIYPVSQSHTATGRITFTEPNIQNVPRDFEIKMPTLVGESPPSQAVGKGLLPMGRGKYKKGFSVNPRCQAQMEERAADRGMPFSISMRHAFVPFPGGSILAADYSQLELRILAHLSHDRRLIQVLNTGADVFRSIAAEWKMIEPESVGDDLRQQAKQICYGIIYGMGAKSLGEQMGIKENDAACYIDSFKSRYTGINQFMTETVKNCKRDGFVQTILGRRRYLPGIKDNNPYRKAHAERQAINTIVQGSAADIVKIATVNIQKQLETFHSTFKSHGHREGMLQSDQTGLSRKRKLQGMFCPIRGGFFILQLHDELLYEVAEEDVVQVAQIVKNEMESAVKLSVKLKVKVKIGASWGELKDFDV
Test: Polθ Polymerase Domain WT KI Assay (PicoGreen)
Format: biochemical
Conditions: 100 nM DNA substrate, 0.156 nM Polθ, initial rates vs inhibitor concentration
Experimental: A PicoGreen assay was used to measure the KI values of reversible compounds that inhibit the activity of Polθ in vitro.
Human Polθ polymerase domain (aa1820-2590) was expressed in E. Coli, purified, aliquoted and stored at −80° C. until required. Polθ substrate was generated from a 1.2:1 mix of DNA II Short to DNA II Long to give a final concentration of […] substrate in annealing buffer (20 mM Tris pH 7.5, 50 mM NaCl). The substrate was heated in 50 mL aliquots to 95° C. in a heating block for 5 min before the heating block switched off, the reaction left to cool to rt and stored at −20° C. until required.
Assay measurements were performed with 1× buffer comprising 25 mM Tris pH 7.5, 12.5 mM NaCl, […], 5% (v/v) glycerol, 0.01% v/v Triton x-100, 0.1 mg/ml BSA, 1 mM DTT. […] 100 nL of 23×1:1.5-fold serial dilutions and a DMSO only control were dispensed using the Tecan dispenser into Greiner 384 well black low volume plates (product code 784076). DMSO concentration was maintained at 1% of the final assay volume by back filling with DMSO.
To stop the reaction, 5 μL of a solution containing 25 mM Tris-HCl PH 7.5 and 20 mM EDTA was added at […] (t=0, 15, 30, 60, 90, 120, 150, 180 mins) using the Tempest's time delay function. The plates were covered during the time course to prevent evaporation. After completing the assay, 5 μL of detection reagent (25 mM Tris-HCl pH 7.5 and 2.5% (v/v) PicoGreen) was dispensed into the wells using a Tempest liquid handler (Formulatrix) and plates subsequently read on the CLARIOstar Plus (BMG Labtech) using the default optical settings for fluorescein and the auto gain/focus settings.
All data analysis was carried out using GraphPad Prism V.8 (GraphPad Software Inc, San Diego, CA). Time course data for each inhibitor concentration were fitted to the linear regression model in GraphPad Prism. Any time points where the control (DMSO only) reaction was no longer linear were excluded from the analysis. The initial rates (slopes) obtained from the linear regression were then plotted against inhibitor concentration and fitted to an inhibitor vs. response variable slope (four parameter) model on GraphPad Prism to determine the KI values.

Structure (SMILES) | Ki
Cc1cc(C(F)(F)F)cc(N2C(=O)C[C@@H]3CN(CC(O)CN4CCOCC4)c4c(Cl)cccc4N(C)C(=O)[C@H]32)n1 (single isomer, unassigned) [Example 133b] | 2.46 nM
Cc1cc(C(F)(F)F)cc(N2C(=O)C[C@@H]3CNc4c(F)cccc4N(C)C(=O)[C@H]32)n1 [Example 1, (3aR,11aS)-6-Fluoro-10-methyl-1-(6-methyl-4-(trifluoromethyl)pyridin-2-yl)-1,3a,4,5,10,11a-hexahydro-2H-benzo[b]pyrrolo[2,3-f][1,4]diazocine-2,11(3H)-dione] | 15.3 nM
Cc1cc(C(F)(F)F)cc(N2C(=O)C[C@@H]3CNc4c(Cl)cccc4N(C)C(=O)[C@H]32)n1 [Example 2, (3aR,11aS)-6-Chloro-10-methyl-1-(6-methyl-4-(trifluoromethyl)pyridin-2-yl)-1,3a,4,5,10,11a-hexahydro-2H-benzo[b]pyrrolo[2,3-f][1,4]diazocine-2,11(3H)-dione] | 0.847 nM
C=CCN1C[C@H]2CC(=O)N(c3cc(C(F)(F)F)cc(C)n3)[C@@H]2C(=O)N(C)c2c(F)c(F)cc(Cl)c21 [Example 6, (3aR,11aS)-5-Allyl-6-chloro-8,9-difluoro-10-methyl-1-(6-methyl-4-(trifluoromethyl)pyridin-2-yl)-1,3a,4,5,10,11a-hexahydro-2H-benzo[b]pyrrolo[2,3-f][1,4]diazocine-2,11(3H)-dione] | 5.14 nM
Cc1cc(C(F)(F)F)cc(N2C(=O)C[C@@H]3CN(CCN4CCN(C)CC4)c4c(Cl)cccc4N(C)C(=O)[C@H]32)n1 [Example 7, (3aR,11aS)-6-Chloro-10-methyl-1-(6-methyl-4-(trifluoromethyl)pyridin-2-yl)-5-(2-(4-methylpiperazin-1-yl)ethyl)-1,3a,4,5,10,11a-hexahydro-2H-benzo[b]pyrrolo[2,3-f][1,4]diazocine-2,11(3H)-dione] | 2 nM
Cc1cc(C(F)(F)F)cc(N2C(=O)C[C@@H]3CN(CCN4CCN(C)CC4)c4c(Cl)cc(F)cc4N(C)C(=O)[C@H]32)n1 [Example 8, (3aR,11aS)-6-Chloro-8-fluoro-10-methyl-1-(6-methyl-4-(trifluoromethyl)pyridin-2-yl)-5-(2-(4-methylpiperazin-1-yl)ethyl)-1,3a,4,5,10,11a-hexahydro-2H-benzo[b]pyrrolo[2,3-f][1,4]diazocine-2,11(3H)-dione] | 4.36 nM
Cc1cc(C(F)(F)F)cc(N2C(=O)C[C@@H]3CN(CCN4CCN[C@H](C)C4)c4c(Cl)cccc4N(C)C(=O)[C@H]32)n1 [Example 9, (3aR,11aS)-6-Chloro-10-methyl-1-(6-methyl-4-(trifluoromethyl)pyridin-2-yl)-5-(2-((R)-3-methylpiperazin-1-yl)ethyl)-1,3a,4,5,10,11a-hexahydro-2H-benzo[b]pyrrolo[2,3-f][1,4]diazocine-2,11(3H)-dione] | 1.4 nM
Cc1cc(C(F)(F)F)cc(N2C(=O)C[C@@H]3CN(CCN4CCN(C)C[C@@H]4C)c4c(Cl)cccc4N(C)C(=O)[C@H]32)n1 [Example 10, (3aR,11aS)-6-Chloro-5-(2-((S)-2,4-dimethylpiperazin-1-yl)ethyl)-10-methyl-1-(6-methyl-4-(trifluoromethyl)pyridin-2-yl)-1,3a,4,5,10,11a-hexahydro-2H-benzo[b]pyrrolo[2,3-f][1,4]diazocine-2,11(3H)-dione Hydrochloride] | 2.18 nM
CC(=O)N1CCN(CCN2C[C@H]3CC(=O)N(c4cc(C(F)(F)F)cc(C)n4)[C@@H]3C(=O)N(C)c3cccc(Cl)c32)[C@@H](C)C1 [Example 11, (3aR,11aS)-5-(2-((S)-4-Acetyl-2-methylpiperazin-1-yl)ethyl)-6-chloro-10-methyl-1-(6-methyl-4-(trifluoromethyl)pyridin-2-yl)-1,3a,4,5,10,11a-hexahydro-2H-benzo[b]pyrrolo[2,3-f][1,4]diazocine-2,11(3H)-dione] | 1.52 nM
Cc1cc(C(F)(F)F)cc(N2C(=O)C[C@@H]3CN(CCN4CCN(C)CC4)c4ccccc4N(C)C(=O)[C@H]32)n1 [Example 13, (3aR,11aS)-10-Methyl-1-(6-methyl-4-(trifluoromethyl)pyridin-2-yl)-5-(2-(4-methylpiperazin-1-yl)ethyl)-1,3a,4,5,10,11a-hexahydro-2H-benzo[b]pyrrolo[2,3-f][1,4]diazocine-2,11(3H)-dione dihydrochloride] | 51.1 nM

The next lines start with the values.

Ki | Structure (SMILES)
0.927 nM | Cc1cc(C(F)(F)F)cc(N2C(=O)C[C@@H]3CNc4c(C)cccc4N(C)C(=O)[C@H]32)n1 [Example 3, (3aR,11aS)-6,10-Dimethyl-1-(6-methyl-4-(trifluoromethyl)pyridin-2-yl)-1,3a,4,5,10,11a-hexahydro-2H-benzo[b]pyrrolo[2,3-f][1,4]diazocine-2,11(3H)-dione]
8.33 nM | C=CCN1C[C@H]2CC(=O)N(c3cc(C(F)(F)F)cc(C)n3)[C@@H]2C(=O)N(C)c2cccc(F)c21 [Example 4, (3aR,11aS)-5-Allyl-6-fluoro-10-methyl-1-(6-methyl-4-(trifluoromethyl)pyridin-2-yl)-1,3a,4,5,10,11a-hexahydro-2H-benzo[b]pyrrolo[2,3-f][1,4]diazocine-2,11(3H)-dione]
1.49 nM | C=CCN1C[C@H]2CC(=O)N(c3cc(C(F)(F)F)cc(C)n3)[C@@H]2C(=O)N(C)c2cccc(Cl)c21 [Example 5, (3aR,11aS)-5-Allyl-6-chloro-10-methyl-1-(6-methyl-4-(trifluoromethyl)pyridin-2-yl)-1,3a,4,5,10,11a-hexahydro-2H-benzo[b]pyrrolo[2,3-f][1,4]diazocine-2,11(3H)-dione]
0.757 nM | Cc1cc(C(F)(F)F)cc(N2C(=O)C[C@@H]3CN(CCN4CC5(CCO5)C4)c4c(C)cccc4N(C)C(=O)[C@H]32)n1 [Example 14, (3aR,11aS)-5-(2-(1-Oxa-6-azaspiro[3.3]heptan-6-yl)ethyl)-6,10-dimethyl-1-(6-methyl-4-(trifluoromethyl)pyridin-2-yl)-1,3a,4,5,10,11a-hexahydro-2H-benzo[b]pyrrolo[2,3-f][1,4]diazocine-2,11(3H)-dione]
1.22 nM | Cc1cc(C(F)(F)F)cc(N2C(=O)C[C@@H]3CN(CCN4CCN(C)[C@H](CO)C4)c4c(C)cccc4N(C)C(=O)[C@H]32)n1 [Example 15, (3aR,11aS)-5-(2-((S)-3-(Hydroxymethyl)-4-methylpiperazin-1-yl)ethyl)-6,10-dimethyl-1-(6-methyl-4-(trifluoromethyl)pyridin-2-yl)-1,3a,4,5,10,11a-hexahydro-2H-benzo[b]pyrrolo[2,3-f][1,4]diazocine-2,11(3H)-dione]
1.2 nM | Cc1cc(C(F)(F)F)cc(N2C(=O)C[C@@H]3CN(CCN4CCNCC4)c4c(C)cccc4N(C)C(=O)[C@H]32)n1 [Example 16, (3aR,11aS)-6,10-Dimethyl-1-(6-methyl-4-(trifluoromethyl)pyridin-2-yl)-5-(2-(piperazin-1-yl)ethyl)-1,3a,4,5,10,11a-hexahydro-2H-benzo[b]pyrrolo[2,3-f][1,4]diazocine-2,11(3H)-dione]
2.43 nM | CNCCNCCN1C[C@H]2CC(=O)N(c3cc(C(F)(F)F)cc(C)n3)[C@@H]2C(=O)N(C)c2cccc(C)c21 [Example 17, (3aR,11aS)-6,10-Dimethyl-1-(6-methyl-4-(trifluoromethyl)pyridin-2-yl)-5-(2-((2-(methylamino)ethyl)amino)ethyl)-1,3a,4,5,10,11a-hexahydro-2H-benzo[b]pyrrolo[2,3-f][1,4]diazocine-2,11(3H)-dione]

Reference: patent US20260124214A1, “HETEROCYCLIC COMPOUNDS FOR USE IN THE TREATMENT OF CANCER” (ARTIOS PHARMA LIMITED, priority 2021, published 2026)
